Like-named read-outs stand apart in the source and are kept apart here.
Legend:
[1] = target: T1, R^0 form of human PTHR-1 (Homo sapiens, UniProt Q03431); assay: Radio-ligand competition binding to R^0 form of human PTHR-1 (COS-7 membranes, 125I-PTH(1-34) tracer, GTPγS); details: for R^0/RG: Table 4, ratio of R^0 to RG IC50, human PTHR-1; for affinity for the R^0 state of hPTHR-1, in words: compared with PTH(1-34)
T1 construct: expressed in transfected cells; host or cells: COS-7
T1 sequence (Q03431 27-593): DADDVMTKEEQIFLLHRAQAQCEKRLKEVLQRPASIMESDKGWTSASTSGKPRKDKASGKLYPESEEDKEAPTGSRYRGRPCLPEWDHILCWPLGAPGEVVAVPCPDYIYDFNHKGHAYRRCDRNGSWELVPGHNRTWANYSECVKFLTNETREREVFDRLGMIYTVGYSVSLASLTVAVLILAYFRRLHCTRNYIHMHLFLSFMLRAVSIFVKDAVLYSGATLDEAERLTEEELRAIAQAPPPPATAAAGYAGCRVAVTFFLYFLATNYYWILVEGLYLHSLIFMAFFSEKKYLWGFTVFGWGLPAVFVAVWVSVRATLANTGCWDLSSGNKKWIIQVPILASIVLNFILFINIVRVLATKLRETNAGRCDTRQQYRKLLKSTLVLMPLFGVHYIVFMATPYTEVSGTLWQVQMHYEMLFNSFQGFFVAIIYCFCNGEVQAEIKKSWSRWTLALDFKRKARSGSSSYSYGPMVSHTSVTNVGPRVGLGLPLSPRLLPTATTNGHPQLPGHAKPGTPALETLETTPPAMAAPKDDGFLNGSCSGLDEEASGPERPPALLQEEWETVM
Source text: (§1) Data are means (±SEM) of n≥4 experiments, each performed in duplicate.

[2] = target: T2, RG form of human PTHR-1 (Homo sapiens, UniProt Q03431); assay: Radio-ligand competition binding to RG form of human PTHR-1 (COS-7 membranes, 125I-M-PTH(1-15) tracer, high affinity Gαs mutant)
T2 construct: expressed in transfected cells; host or cells: COS-7
T2 sequence (Q03431 27-593): T1 sequence (Q03431 27-593)
Source text: as §1

[3] = target: T3, RG form of rat PTHR-1 (Rattus norvegicus, UniProt P25961); assay: Radio-ligand competition binding to RG form of rat PTHR-1
T3 construct: expressed in transfected cells; host or cells: COS-7
T3 sequence (P25961 27-591): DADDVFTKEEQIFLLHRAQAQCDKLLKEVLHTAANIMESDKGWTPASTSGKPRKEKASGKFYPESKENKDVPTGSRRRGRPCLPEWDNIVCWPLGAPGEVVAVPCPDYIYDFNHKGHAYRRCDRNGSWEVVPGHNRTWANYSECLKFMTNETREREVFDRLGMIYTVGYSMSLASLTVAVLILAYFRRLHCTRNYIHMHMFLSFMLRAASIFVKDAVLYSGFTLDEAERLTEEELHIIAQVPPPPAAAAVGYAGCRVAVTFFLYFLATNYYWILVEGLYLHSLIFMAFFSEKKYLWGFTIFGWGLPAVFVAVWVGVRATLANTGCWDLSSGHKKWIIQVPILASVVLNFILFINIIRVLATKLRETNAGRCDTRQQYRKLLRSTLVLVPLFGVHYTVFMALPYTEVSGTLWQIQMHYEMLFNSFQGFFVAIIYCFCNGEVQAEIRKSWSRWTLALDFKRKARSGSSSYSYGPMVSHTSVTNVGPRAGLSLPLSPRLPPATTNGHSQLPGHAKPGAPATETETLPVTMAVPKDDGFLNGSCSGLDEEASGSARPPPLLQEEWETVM
Source text: as §1

[4] = target: T4, PTHR (Homo sapiens, UniProt Q03431); assay: cAMP induction potency, N-terminal modifications and cyclic constraints (Tables 9, 10, 13); type: cell-based; details: Table 9
T4 construct: expressed in transfected cells
T4 sequence (Q03431 27-593): T1 sequence (Q03431 27-593)
Method: For cAMP dose-response assays, monolayers of confluent HEK 293 cells were pre-incubated with buffer containing d-luciferin (0.5 mM) in 96 well plates at room temperature until a stable baseline level of luminescence was established (30 min). Varying concentrations of agonist were then added, and the time course of luminescence response was recorded using a Perkin Elmer plate reader following α/β-peptide addition.

[5] = Table 2, read-out: RG IC50, nM, Binding (rPTHR-1)

IC50 ([1]; Table 1, COS-7 membranes, 125I-PTH(1-34) tracer, GTPγS, read-out: R^0 IC50, nM, Binding (hPTHR-1)) [nM]	IC50 ([2]; Table 1, 125I-M-PTH(1-15) tracer, Gαs mutant, read-out: RG IC50, nM, Binding (hPTHR-1)) [nM]	IC50 ([3]; Table 5, rat PTHR-1, mean ± SEM, read-out: RG -log (IC50) (converted)) [nM]	SMILES	IC50 [1] [nM]	R^0/RG [1]	affinity for the R^0 state of hPTHR-1, in words [1]	IC50 [2] [nM]	IC50 [3, 5] [nM]	Fold PTH [4]	EC50 ([4]; read-out: EC50, nM (cAMP induction potency)) [nM]
			CC[C@H](C)[C@H](NC(=O)[C@H](CCC(=O)O)NC(=O)[C@H](CO)NC(=O)[C@@H](NC(=O)[C@@H](N)CO)C(C)C)C(=O)N[C@@H](CCC(N)=O)C(=O)N[C@@H](CC(C)C)C(=O)N[C@@H](CCSC)C(=O)N[C@@H](Cc1cnc[nH]1)C(=O)N[C@@H](CC(N)=O)C(=O)N[C@@H](CC(C)C)C(=O)NCC(=O)N[C@@H](CCCCN)C(=O)N[C@H](CC(=O)N[C@@H](CC(C)C)C(=O)N[C@@H](CC(N)=O)C(=O)N[C@@H](CO)C(=O)N[C@@H](CCSC)CC(=O)N[C@@H](CCC(=O)O)C(=O)N[C@@H](CCCNC(=N)N)C(=O)N[C@H](C(=O)N[C@@H](CCC(=O)O)CC(=O)N[C@@H](Cc1c[nH]c2ccccc12)C(=O)N[C@@H](CC(C)C)C(=O)N[C@@H](CCCNC(=N)N)C(=O)N[C@@H](CCCCN)CC(=O)N[C@@H](CCCCN)C(=O)N[C@@H](CC(C)C)C(=O)N[C@@H](CCC(N)=O)C(=O)N[C@@H](CC(=O)O)CC(=O)N[C@H](C(=O)N[C@@H](Cc1cnc[nH]1)C(=O)N[C@@H](CC(N)=O)C(=O)N[C@H](CC(N)=O)Cc1ccccc1)C(C)C)C(C)C)Cc1c[nH]c2ccccc12 [D6]	2	31	comparably to PTH(1-34)	0.065	0.81	2.1	0.17 ± 0.05
19	0.086	4.27	CC[C@H](C)[C@H](NC(=O)[C@H](CCC(=O)O)NC(=O)[C@H](CO)NC(=O)[C@@H](NC(=O)[C@@H](N)CO)C(C)C)C(=O)N[C@@H](CCC(N)=O)C(=O)N[C@@H](CC(C)C)C(=O)N[C@@H](CCSC)C(=O)N[C@@H](Cc1c[nH]cn1)C(=O)N[C@@H](CC(N)=O)C(=O)N[C@@H](CC(C)C)C(=O)NCC(=O)N[C@@H](CCCCN)C(=O)N[C@@H](Cc1c[nH]cn1)C(=O)N[C@@H](CC(C)C)C(=O)N[C@@H](CC(N)=O)CC(=O)N[C@@H](CO)C(=O)N[C@@H](CCSC)C(=O)N[C@@H](CCC(=O)O)C(=O)N[C@@H](CCCNC(=N)N)CC(=O)N[C@H](C(=O)N[C@@H](CCC(=O)O)C(=O)N[C@@H](Cc1c[nH]c2ccccc12)C(=O)N[C@H](CC(=O)N[C@@H](CCCNC(=N)N)C(=O)N[C@@H](CCCCN)C(=O)N[C@@H](CCCCN)C(=O)N[C@H](CC(=O)N[C@@H](CCC(N)=O)C(=O)N[C@@H](CC(=O)O)C(=O)N[C@H](C(=O)N[C@@H](CCC(N)=O)CC(=O)N[C@@H](CC(N)=O)C(=O)N[C@@H](Cc1ccccc1)C(N)=O)C(C)C)CC(C)C)CC(C)C)C(C)C [B5]		225	an order of magnitude more weakly		4.2		
